# Tests used:
# [1] = system: SARS-CoV-2; conditions: vero e6
# Description: (§1) Antiviral activity against SARS-CoV-2 D614 isolates infected in African green monkey Vero E6 cells assessed as reduction in plaque formation treated for 1 hr prior to infection with cells incubated for 30 mins by plaque reduction neutralization test
# [2] = system: SARS-CoV-2; type: functional, organism-based, Severe acute respiratory syndrome coronavirus 2, G614, Vero E6
# [3] = molecular target: T1, Heparanase (Homo sapiens, UniProt Q9Y251); experiment: Inhibition of recombinant human heparanase expressed in Insect cells assessed as fondaparinux cleavage by measuring disaccharide product incubated for 18 to 21 hrs; conditions: insect cell
# T1 sequence (Q9Y251 whole entry): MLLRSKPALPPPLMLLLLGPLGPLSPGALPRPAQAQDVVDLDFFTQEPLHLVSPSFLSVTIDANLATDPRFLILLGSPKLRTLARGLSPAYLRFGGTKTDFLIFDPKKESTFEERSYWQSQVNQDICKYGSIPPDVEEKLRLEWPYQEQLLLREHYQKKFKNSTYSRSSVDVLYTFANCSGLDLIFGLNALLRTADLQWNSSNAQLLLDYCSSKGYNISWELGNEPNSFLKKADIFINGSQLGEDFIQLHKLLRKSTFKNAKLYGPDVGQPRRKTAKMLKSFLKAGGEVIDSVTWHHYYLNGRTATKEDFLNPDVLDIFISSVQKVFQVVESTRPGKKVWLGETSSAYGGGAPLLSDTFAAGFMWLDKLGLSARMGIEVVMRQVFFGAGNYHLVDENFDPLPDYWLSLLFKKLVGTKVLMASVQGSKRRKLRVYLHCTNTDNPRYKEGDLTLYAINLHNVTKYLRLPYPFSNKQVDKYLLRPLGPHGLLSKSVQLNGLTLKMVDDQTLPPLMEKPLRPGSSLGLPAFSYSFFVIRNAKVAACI
# [4] = system: SARS-CoV-2; experiment: microbe, parasite or virus in culture; conditions: Severe acute respiratory syndrome coronavirus 2, D614, Vero C1008
# Description: as §1
# [5] = molecular target: Spike glycoprotein (Severe acute respiratory syndrome coronavirus 2, UniProt P0DTC2); experiment: Binding affinity to RBD domain of SARS-CoV-2 spike protein assessed as dissociation constant by Isothermal Titration Calorimetry
# [6] = system: Respiratory syncytial virus; experiment: Antiviral activity against RSV A2 strain infected in HEp-2 cells assessed as reduction in plaque number measured after 3 days incubation; conditions: human respiratory syncytial virus, A2, HEp-2, 72 h
# [7] = system: Human alphaherpesvirus 2; experiment: Antiviral activity against HSV2 infected in CMK AH1 cells assessed as reduction in plaque number measured after 2 days incubation; conditions: Human alphaherpesvirus 2, CMK AH1, 48 h
# [8] = Severe acute respiratory syndrome coronavirus 2, G614, Vero C1008, read-out: IC50
Compound,IC50 [1],"IC50 [2, 8] [µg/mL]",IC50 [4] [µg/mL],Kd [5] [µM],further results
[N-]=[N+]=NCCCCCCCCCCC(=O)NCCCCCCCCCCCO[C@@H]1O[C@H](COS(=O)(=O)[O-])[C@@H](O[C@H]2O[C@H](COS(=O)(=O)[O-])[C@@H](O[C@H]3O[C@H](COS(=O)(=O)[O-])[C@@H](O[C@H]4O[C@H](COS(=O)(=O)[O-])[C@@H](OS(=O)(=O)[O-])[C@H](OS(=O)(=O)[O-])[C@H]4OS(=O)(=O)[O-])[C@H](OS(=O)(=O)[O-])[C@H]3OS(=O)(=O)[O-])[C@H](OS(=O)(=O)[O-])[C@H]2OS(=O)(=O)[O-])[C@H](OS(=O)(=O)[O-])[C@H]1OS(=O)(=O)[O-].[Na+].[Na+].[Na+].[Na+].[Na+].[Na+].[Na+].[Na+].[Na+].[Na+].[Na+].[Na+].[Na+],Not Active,84.1,,,
CC(C)CCC[C@@H](C)[C@H]1CC[C@H]2[C@@H]3CC[C@H]4C[C@@H](O[C@@H]5O[C@@H](C(=O)O)[C@@H](O[C@@H]6O[C@@H](C(=O)O)[C@@H](OS(=O)(=O)O)[C@H](O)[C@H]6OS(=O)(=O)O)[C@H](O)[C@H]5OS(=O)(=O)O)CC[C@]4(C)[C@H]3CC[C@]12C,,,33.7,,IC50 [3]: Not Active
CCCCCCCCCCCCCCCCCC(=O)NCCCO[C@@H]1O[C@H](COS(=O)(=O)[O-])[C@@H](O[C@H]2O[C@H](COS(=O)(=O)[O-])[C@@H](O[C@H]3O[C@H](COS(=O)(=O)[O-])[C@@H](O[C@H]4O[C@H](COS(=O)(=O)[O-])[C@@H](O[C@H]5O[C@H](COS(=O)(=O)[O-])[C@@H](O[C@H]6O[C@H](COS(=O)(=O)[O-])C(OS(=O)(=O)[O-])[C@H](OS(=O)(=O)[O-])[C@H]6OS(=O)(=O)[O-])[C@H](OS(=O)(=O)[O-])[C@H]5OS(=O)(=O)[O-])[C@H](OS(=O)(=O)[O-])[C@H]4OS(=O)(=O)[O-])[C@H](OS(=O)(=O)[O-])[C@H]3OS(=O)(=O)[O-])[C@H](OS(=O)(=O)[O-])[C@H]2OS(=O)(=O)[O-])[C@H](OS(=O)(=O)[O-])[C@H]1OS(=O)(=O)[O-].[Na+].[Na+].[Na+].[Na+].[Na+].[Na+].[Na+].[Na+].[Na+].[Na+].[Na+].[Na+].[Na+].[Na+].[Na+].[Na+].[Na+].[Na+].[Na+] (stereo not given in full),Not Active,,,,IC50 ([2]; vero e6): Not Active
O=C(CCCCCCCCCCn1cc(CNc2ccc([N+](=O)[O-])c3nonc23)nn1)NCCCCCCO[C@@H]1O[C@H](COS(=O)(=O)[O-])[C@@H](O[C@H]2O[C@H](COS(=O)(=O)[O-])[C@@H](O[C@H]3O[C@H](COS(=O)(=O)[O-])[C@@H](O[C@H]4O[C@H](COS(=O)(=O)[O-])[C@@H](OS(=O)(=O)[O-])[C@H](OS(=O)(=O)[O-])[C@H]4OS(=O)(=O)[O-])[C@H](OS(=O)(=O)[O-])[C@H]3OS(=O)(=O)[O-])[C@H](OS(=O)(=O)[O-])[C@H]2OS(=O)(=O)[O-])[C@H](OS(=O)(=O)[O-])[C@H]1OS(=O)(=O)[O-].[Na+].[Na+].[Na+].[Na+].[Na+].[Na+].[Na+].[Na+].[Na+].[Na+].[Na+].[Na+].[Na+],Not Active,16.1,,,
CC(C)CCC[C@@H](C)[C@H]1CC[C@H]2[C@@H]3CC[C@H]4C[C@@H](O[C@H]5O[C@H](COS(=O)(=O)[O-])[C@@H](O[C@H]6O[C@H](COS(=O)(=O)[O-])[C@@H](O[C@H]7O[C@H](COS(=O)(=O)[O-])[C@@H](O[C@H]8O[C@H](COS(=O)(=O)[O-])[C@@H](O[C@H]9O[C@H](COS(=O)(=O)[O-])[C@@H](O[C@H]%10O[C@H](COS(=O)(=O)[O-])[C@@H](OS(=O)(=O)[O-])[C@H](OS(=O)(=O)[O-])[C@H]%10OS(=O)(=O)[O-])[C@H](OS(=O)(=O)[O-])[C@H]9OS(=O)(=O)[O-])[C@H](OS(=O)(=O)[O-])[C@H]8OS(=O)(=O)[O-])[C@H](OS(=O)(=O)[O-])[C@H]7OS(=O)(=O)[O-])[C@H](OS(=O)(=O)[O-])[C@H]6OS(=O)(=O)[O-])[C@H](OS(=O)(=O)[O-])[C@H]5OS(=O)(=O)[O-])CC[C@]4(C)[C@H]3CC[C@]12C.[Na+].[Na+].[Na+].[Na+].[Na+].[Na+].[Na+].[Na+].[Na+].[Na+].[Na+].[Na+].[Na+].[Na+].[Na+].[Na+].[Na+].[Na+].[Na+],,21.7,12.2,1.87,
CC(C)CCC[C@@H](C)[C@H]1CC[C@H]2[C@@H]3CC[C@H]4C[C@@H](O[C@@H]5O[C@H](COS(=O)(=O)[O-])[C@@H](O[C@H]6O[C@H](COS(=O)(=O)[O-])[C@@H](O[C@H]7O[C@H](COS(=O)(=O)[O-])[C@@H](O[C@H]8O[C@H](COS(=O)(=O)[O-])[C@@H](OS(=O)(=O)[O-])[C@H](OS(=O)(=O)[O-])[C@H]8OS(=O)(=O)[O-])[C@H](OS(=O)(=O)[O-])[C@H]7OS(=O)(=O)[O-])[C@H](OS(=O)(=O)[O-])[C@H]6OS(=O)(=O)[O-])[C@H](OS(=O)(=O)[O-])[C@H]5OS(=O)(=O)[O-])CC[C@]4(C)[C@H]3CC[C@]12C.[Na+].[Na+].[Na+].[Na+].[Na+].[Na+].[Na+].[Na+].[Na+].[Na+].[Na+].[Na+].[Na+],,,29.6,9.12,IC50 [6]: ~1 µg/mL; IC50 [7]: ~1 µg/mL

# Reference: ChEMBL document CHEMBL5523749, “Amphiphilic Heparinoids as Potent Antiviral Agents against SARS-CoV-2” (J Med Chem, 2024)
